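Compound exposure: 48 hours, 5 concentrations, 96-well plates. GI50: concentration for 50% inhibition of growth.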 Active and inactive are the calls of the source. No stated cut-off is given here; in the data, active = GI50 up to about 1.1 µM and inactive = higher.
Legend:
Assay in all cases: NCI-60 cell line screen, 48 h
COLO 205 = system: COLO 205
UO-31 = system: UO-31
HOP-92 = system: HOP-92
SF-295 = system: SF-295
HOP-62 = system: HOP-62
HCT-116 = system: HCT-116
NCI-H226 = system: NCI-H226
HL-60 = system: HL-60
U-251 = system: U-251
OVCAR-4 = system: OVCAR-4
RXF 393 = system: RXF 393
EKVX = system: EKVX
M14 = system: M14
SN12C = system: SN12C
HCT-15 = system: HCT-15
PC-3 = system: PC-3
DU-145 = system: DU-145
MCF7 = system: MCF7
MDA-MB-435 = system: MDA-MB-435

SMILES | GI50 (COLO 205) | GI50 (UO-31) | GI50 (HOP-92) | GI50 (SF-295) | GI50 (HOP-62) | GI50 (HCT-116) | GI50 (NCI-H226) | GI50 (HL-60) | GI50 (U-251) | GI50 (OVCAR-4) | GI50 (RXF 393) | GI50 (EKVX) | GI50 (M14) | GI50 (SN12C) | GI50 (HCT-15) | GI50 (PC-3) | GI50 (DU-145) | GI50 (MCF7) | GI50 (MDA-MB-435)
Cc1nc2c(sc(=S)n2-c2ccccc2)c(=O)[nH]1 | > 100 µM (inactive) | > 100 µM (inactive) | > 100 µM (inactive) | > 100 µM (inactive) | > 100 µM (inactive) | > 100 µM (inactive) | > 100 µM (inactive) | > 100 µM (inactive) | > 100 µM (inactive) |  |  |  |  |  |  |  |  |  | 
COc1ccccc1C1C(Cl)C(=O)N1n1cnc2ccccc2c1=O (stereo not drawn) | > 100 µM (inactive) | 45.6 µM (inactive) |  | > 100 µM (inactive) | > 100 µM (inactive) | > 100 µM (inactive) | > 100 µM (inactive) | > 100 µM (inactive) | 48.3 µM (inactive) | > 100 µM (inactive) | > 100 µM (inactive) | > 100 µM (inactive) | > 100 µM (inactive) | > 100 µM (inactive) | > 100 µM |  |  |  | 
CCCCCCCCC(O)c1ccc(/C=C\C(O)CCCC(=O)O)s1 (stereo not drawn) | > 100 µM (inactive) | > 100 µM (inactive) | > 100 µM (inactive) | > 100 µM (inactive) |  | > 100 µM (inactive) | > 100 µM (inactive) | > 100 µM (inactive) | > 100 µM (inactive) | > 100 µM (inactive) | > 100 µM (inactive) | > 100 µM (inactive) | > 100 µM (inactive) | > 100 µM (inactive) | > 100 µM |  |  |  | 
c1c2c(cc(-n3nnc4c3CCCCCC4)c1-n1nnc3c1CCCCCC3)CCCCCC2 |  | 5.4 µM (inactive) | 3.28 µM (inactive) | 12 µM (inactive) | 17.8 µM (inactive) | 5.7 µM (inactive) | 16 µM (inactive) | 3.8 µM (inactive) | 10.1 µM (inactive) |  | 8.07 µM (inactive) | 10.7 µM (inactive) | 13.7 µM (inactive) | 10.8 µM (inactive) | 5.19 µM |  |  |  | 
COc1cc(C2C(C(=O)O)=C(COC(C)=O)Oc3cc4c(cc32)OCO4)cc(OC)c1OC (stereo not drawn) | > 100 µM (inactive) | > 100 µM (inactive) |  | > 100 µM (inactive) | > 100 µM (inactive) | > 100 µM (inactive) |  | > 100 µM (inactive) | > 100 µM (inactive) | > 100 µM (inactive) | > 100 µM (inactive) | > 100 µM (inactive) | > 100 µM (inactive) | > 100 µM (inactive) | > 100 µM |  |  |  | 
CC(=O)OCC1OC(N2C(=O)NC(=O)C3C=C4CCCCC4=CC32)C(OC(C)=O)C1OC(C)=O (stereo not drawn) | > 100 µM (inactive) | > 100 µM (inactive) | > 100 µM (inactive) | > 100 µM (inactive) |  | > 100 µM (inactive) |  | > 100 µM (inactive) | > 100 µM (inactive) | > 100 µM (inactive) | > 100 µM (inactive) | > 100 µM (inactive) | > 100 µM (inactive) | > 100 µM (inactive) | > 100 µM | > 100 µM (inactive) | > 100 µM (inactive) | > 100 µM (inactive) | > 100 µM (inactive)
C=C1c2c(cc3c(c2O)c(=O)c2ccccc2n3C)OC1(C)C | > 100 µM (inactive) | > 100 µM (inactive) | 15 µM (inactive) | 22.5 µM (inactive) |  |  | 79.4 µM (inactive) | > 100 µM (inactive) | 50.1 µM (inactive) |  |  | > 100 µM (inactive) | > 100 µM (inactive) | > 100 µM (inactive) | > 100 µM |  |  |  | 
O=C(NC(Cc1ccc(I)cc1)C(=O)O)c1ccc(I)cc1 (stereo not drawn) | > 100 µM (inactive) | 14.5 µM (inactive) | 66.7 µM (inactive) | > 100 µM (inactive) | 72.3 µM (inactive) | 54.1 µM (inactive) | > 100 µM (inactive) | > 62.1 µM (inactive) | 62.1 µM (inactive) | 51.4 µM (inactive) | > 100 µM (inactive) | > 51.2 µM (inactive) |  | > 100 µM (inactive) | 99.1 µM |  |  | > 50.4 µM (inactive) | 
Oc1ccc(-c2nc3cc(C(F)(F)F)ccc3s2)cc1 | 18.8 µM (inactive) | 13.6 µM (inactive) |  | 15 µM (inactive) |  | 14.5 µM (inactive) | 17.3 µM (inactive) | 18.1 µM (inactive) | 16.1 µM (inactive) |  | 17.4 µM (inactive) | 1.77 µM (inactive) | 15.5 µM (inactive) | 17.7 µM (inactive) | 10.1 µM | 14.5 µM (inactive) | 16.4 µM (inactive) | 10.2 µM (inactive) | 15.7 µM (inactive)
CC1C(=O)C(C)C(c2cccs2)N(N=O)C1c1cccs1 (stereo not drawn) | > 100 µM (inactive) | > 100 µM (inactive) | 68.5 µM (inactive) | > 100 µM (inactive) | > 100 µM (inactive) | > 100 µM (inactive) | > 100 µM (inactive) | > 100 µM (inactive) | > 100 µM (inactive) | > 100 µM (inactive) | > 100 µM (inactive) | > 100 µM (inactive) |  | > 100 µM (inactive) | > 100 µM |  |  | > 100 µM (inactive) | 
C=C(C)C(=O)[C@@]12C(=O)[C@@H](C)CC[C@H]1[C@H](C)C[C@@H]2C=C(C)C | 18.8 µM (inactive) | 20.2 µM (inactive) | 25.8 µM (inactive) | 33.9 µM (inactive) | 34.4 µM (inactive) | 14.9 µM (inactive) | < 0.01 µM (active) |  | 23.6 µM (inactive) | 28.8 µM (inactive) |  | 30.5 µM (inactive) | 55.6 µM (inactive) | 20.8 µM (inactive) | 19.9 µM | 24 µM (inactive) | 38.4 µM (inactive) | 23.9 µM (inactive) | 20.3 µM (inactive)
Cc1cc2c(cc1C)N1Cc3c(ccc(C)c3C)N(C2)C1.Cc1cc2c(cc1C)N1Cc3cc(C)c(C)cc3N(C2)C1 | > 100 µM (inactive) |  |  | 89.5 µM (inactive) | 74.5 µM (inactive) | > 100 µM (inactive) | > 100 µM (inactive) | 35.2 µM (inactive) | > 100 µM (inactive) | > 100 µM (inactive) | 35.6 µM (inactive) | > 100 µM (inactive) | > 100 µM (inactive) | 10 µM (inactive) |  |  |  |  | 
Fc1ccccc1C1CC(C(c2ccccc2)c2ccccc2)=Nc2ccccc2S1 (stereo not drawn) | 14.8 µM (inactive) | 14 µM (inactive) |  | 9.48 µM (inactive) | 12.6 µM (inactive) |  | 13 µM (inactive) | 2.55 µM (inactive) | 12.6 µM (inactive) | 10.9 µM (inactive) | 4.63 µM (inactive) | 10.3 µM (inactive) | 11.9 µM (inactive) | 10.2 µM (inactive) | 5.78 µM |  |  |  | 
COc1ccc(/C=C2\CCNC2=O)cc1 | > 100 µM (inactive) | 75.2 µM (inactive) | > 100 µM (inactive) | > 100 µM (inactive) | 40.6 µM (inactive) | > 100 µM (inactive) | > 100 µM (inactive) | > 100 µM (inactive) | > 100 µM (inactive) | > 100 µM (inactive) |  | > 29.4 µM (inactive) |  | > 100 µM (inactive) | > 100 µM |  |  | > 100 µM (inactive) | 

Source: ChEMBL document CHEMBL1201862, “PubChem BioAssay data set” (2004)
